Several values for one entry are separate records, joined by “and”; a condition that tells them apart may be missing. Equal entries are not always repeated. Where two headings read alike, the source gives them in different places.
Columns and labels:
[1] = biological target: T1, CYP3A4 (Homo sapiens, UniProt P08684); assay: CYP3A4 in vitro enzyme assay (testosterone to 6β-hydroxytestosterone)
Protocol: The inhibitory effect of DHF on CYP3A4 was investigated as described previously. In the enzyme-catalyzed reaction, testosterone is oxidized to 6β-hydroxytestosterone. […] The incubates (with 200 μL final volume) contained CypExpress 3A4 reagent (15 mg/mL; containing also the NADPH generating system), testosterone (5 μM), NADP^+ (200 μM), G6P (500 μM), and increasing concentrations of DHF (0, 5, 10, 15, and 20 μM) in potassium phosphate buffer (50 mM, pH 7.5). Samples were incubated in thermomixer (180 min, 600 rpm, 30 °C). The reaction was started by the addition of the enzyme and stopped by the addition of 100 μL of ice-cold methanol. After centrifugation (10 min, 14,000× g, 25 °C), testosterone and 6β-hydroxytestosterone were analyzed in the supernatants by HPLC (see Section 2.5).
Testosterone and 6β-hydroxytestosterone (CYP3A4 assay) were quantified as reported previously. The samples were driven through a Phenomenex Security Guard (C18, 4.0 × 3.0 mm) guard column linked to a Kinetex EVO C18 (150 × 4.6 mm, 5 μm) analytical column (Phenomenex). The mobile phase contained methanol, water, and glacial acetic acid (59:40:1 v/v%). The isocratic elution was performed at 1.2 mL/min flow rate at room temperature. Testosterone and 6β-hydroxytestosterone were detected at 240 nm.

[2] = test system: T2, HSA Site I (warfarin); assay: Ultrafiltration: displacement of Site I marker warfarin from HSA; assay type: binding, human; details: warfarin 1.0 μM, HSA 5.0 μM, PBS pH 7.4
T2 construct: purchased Sigma-Aldrich
Protocol: Pall Microsep Advance centrifugal devices with a 10-kDa molecular weight cut-off (MWCO) value (VWR; Budapest, Hungary) were applied. […] Before ultrafiltration, the filter units were washed once with 3.0 mL of distilled water and twice with 3.0 mL of PBS; then, samples (with a 2.5 mL volume) were driven through the filters by centrifugation (10 min, 7500× g, fixed-angle rotor, 25 °C). The concentrations of site markers in the filtrates were quantified with HPLC (see Section 2.5). […] The samples were driven through a Nova-Pak C18 guard column (3.9 × 20 mm, 4 μm; Waters,) and a Nova-Pak C18 analytical column (3.9 × 150 mm, 4 μm; Waters). The mobile phase contained sodium phosphate buffer (25 mM, pH 7.0), methanol, and acetonitrile (70:25:5 v/v%).

[3] = biological target: T3, CYP2C9 (Homo sapiens, UniProt P11712); assay: CYP2C9 in vitro enzyme assay (diclofenac to 4'-hydroxydiclofenac)
Protocol: The inhibitory action of DHF on CYP2C9 was investigated as described earlier. In the enzyme-catalyzed reaction, diclofenac is oxidized to 4′-hydroxydiclofenac. […] The incubates (with 200 μL final volume) contained CypExpress 2C9 reagent (8 mg/mL) including also the NADPH (nicotinamide adenine dinucleotide phosphate, reduced) generating system, diclofenac (15 μM), and increasing concentrations of DHF (0, 15, 30, 45, and 60 μM) in potassium phosphate buffer (50 mM, pH 7.5). The incubation was carried out in a thermomixer (80 min, 700 rpm, 30 °C). The reaction was started by the addition of the enzyme and stopped by the addition of 100 μL of ice-cold methanol; then, the samples were centrifuged (10 min, 14,000× g, 25 °C). Diclofenac and 4′-hydroxydiclofenac were analyzed in the supernatants by HPLC (see Section 2.5).
Diclofenac and 4′-hydroxydiclofenac (CYP2C9 assay) were quantified as reported previously. The samples were driven through a Phenomenex Security Guard (C8, 4.0 × 3.0 mm) guard column (Torrance, CA, USA) linked to an Eclipse C8 (150 × 4.6 mm, 5 μm; Agilent, Santa Clara, CA, USA) analytical column. The separation was carried out at 1.0 mL/min flow rate at room temperature. During the isocratic elution, the mobile phase contained acetonitrile and 6 mM orthophosphoric acid (52:48 v/v%). Diclofenac and 4′-hydroxydiclofenac were detected at 275 nm.

[4] = biological target: CYP2C19 (Homo sapiens, UniProt P33261); assay: CYP2C19 in vitro enzyme assay (S-mephenytoin to 4-hydroxymephenytoin); assay type: biochemical
Protocol: To study the inhibitory effect of DHF on CYP2C19, S-mephenytoin was used as the substrate. During the enzyme-catalyzed reaction, 4-hydroxymephenytoin is formed. […] The incubation was performed in a thermomixer (120 min, 600 rpm, 30 °C). […] After centrifugation (10 min, 14,000× g, 25 °C), S-mephenytoin and 4-hydroxymephenytoin were quantified in the supernatants by HPLC (see Section 2.5).
The mobile phase contained acetonitrile, methanol, and sodium phosphate buffer (10 mM, pH 4.55) (20:15:65 v/v%). […] S-mephenytoin and 4-hydroxymephenytoin were detected at 230 nm.

[5] = biological target: T4, xanthine oxidase (XO; from bovine milk) (Bos taurus, UniProt P80457); assay: Xanthine oxidase in vitro enzyme assay (6-mercaptopurine to 6-thiouric acid); assay type: biochemical; details: substrate 6-mercaptopurine 5.0 μM
T4 construct: xanthine oxidase (XO; from bovine milk); purchased Sigma-Aldrich; host or cells: bovine milk
Protocol: The inhibitory action of DHF on XO was investigated as described earlier [31]. In the enzyme-catalyzed reaction, 6-mercaptopurine is oxidized to 6-thiouric acid. […] The incubates (with 500 μL final volume) contained XO enzyme (0.01 unit/mL), 6-mercaptopurine (5 μM), and increasing concentrations of DHF (0, 5, 10, 15, and 20 μM) in sodium phosphate buffer (50 mM, pH 7.5). Samples were incubated in thermomixer (40 min, 700 rpm, 37 °C). The reaction was started by the addition of the enzyme and stopped by the addition of 30 μL of perchloric acid (6 M). After the samples were vortexed and centrifuged (5 min, 1,4000× g, room temperature), a 300-μL aliquot of the supernatant was transferred into another Eppendorf tube; then, 36 μL of potassium hydroxide (1 M) was added to this fraction. Samples were cooled to 3 °C, then, centrifuged (5 min, 14,000× g, 3°C). 6-mercaptopurine and 6-thiouric acid were quantified in the supernatants by HPLC (see Section 2.5).
The samples were driven through a Phenomenex SecurityGuard (C18, 4.0 × 3.0 mm) guard column linked to a Phenomenex Gemini-NX C18 (150 × 4.6 mm, 3 μm) analytical column. The eluent contained methanol, acetonitrile, and 0.02 M orthophosphoric acid (4:5:91 v/v%). The isocratic elution was performed at 0.8 mL/min flow rate at room temperature. 6-mercaptopurine and 6-thiouric acid were detected at 334 nm.

[6] = test system: T5, human serum albumin (HSA); assay: Fluorescence quenching of HSA by DHF (Stern-Volmer, Hyperquad2006); assay type: binding; details: HSA 2 μM, PBS pH 7.4, 25 °C
T5 construct: purchased Sigma-Aldrich
Protocol: Fluorescence spectroscopic measurements were carried out using a Hitachi F-4500 fluorescence spectrophotometer (Tokyo, Japan). The binding constant of the DHF–HSA complex was determined by fluorescence quenching, during which increasing amounts of DHF (final concentrations: 0, 0.5, 1.0, 2.0, 3.0, 4.0, 5.0, and 6.0 μM) were added to HSA (2 μM) in phosphate buffered saline (PBS; pH 7.4; containing 8.00 g/L NaCl, 0.20 g/L KCl, 1.81 g/L Na2HPO4 × 2H2O, and 0.24 g/L KH2PO4); then, emission spectra were recorded using 295-nm excitation wavelength (at 25 °C, in the presence of air). DHF-HSA interaction was evaluated using the graphical application of the Stern-Volmer equation [25, 26]:(1) I0/I=[…], where I0 and I are the fluorescence emission intensity of HSA at 340 nm in the absence and presence of DHF, respectively. KSV denotes the Stern–Volmer quenching constant (unit: L/mol), and [Q] is the concentration of DHF (unit: mol/L). Furthermore, the binding constant (K; unit: L/mol) of the DHF–HSA complex was determined by nonlinear fitting applying the Hyperquad2006 software as described elsewhere. […]

[7] = test system: T6, warfarin-HSA complex (Site I); assay: Fluorescence-based displacement of warfarin from HSA; assay type: binding, human; details: warfarin 1.0 μM, HSA 3.5 μM, DHF 0-10 μM, PBS pH 7.4, λex 317 nm
T6 construct: purchased Sigma-Aldrich
Protocol: Ultraviolet (UV)-Vis spectra of DHF were recorded employing a Halo DB-20 spectrophotometer (Dynamica; Dietikon, Switzerland), after which the inner filter effect of DHF was corrected in each experiment based on the following equation [26, 28]:(2) Icorr=Iobs×e^(Aex+ Aem)/2, where Icorr and Iobs indicate the corrected and the measured fluorescence emission intensity, respectively, while Aex and Aem denote the absorption of DHF at the excitation and emission wavelengths used, respectively.

[8] = test system: T7, HSA Site II (naproxen); assay: Ultrafiltration: displacement of Site II marker naproxen from HSA; assay type: binding, human; details: naproxen 1.0 μM, HSA 1.5 μM, PBS pH 7.4
T7 construct: purchased Sigma-Aldrich
Protocol: Pall Microsep Advance centrifugal devices with a 10-kDa molecular weight cut-off (MWCO) value (VWR; Budapest, Hungary) were applied. […] Before ultrafiltration, the filter units were washed once with 3.0 mL of distilled water and twice with 3.0 mL of PBS; then, samples (with a 2.5 mL volume) were driven through the filters by centrifugation (10 min, 7500× g, fixed-angle rotor, 25 °C). The concentrations of site markers in the filtrates were quantified with HPLC (see Section 2.5). Naproxen was analyzed in the filtrates as described earlier. […] The mobile phase contained acetonitrile and sodium acetate buffer (6.9 mM, pH 4.0) (50:50 v/v%). […] Naproxen was detected at 230 nm.

[9] = set-up: method as in PMID 29295929; details: mice, cited from earlier work
[10] = cited from earlier work
[11] = test system: HSA; details: cited from earlier work
[12] = biological target: T3, CYP2C9; details: same model as this study; cited from earlier work
[13] = biological target: T1, CYP3A4; set-up: method as in PMID 30142539; details: same model as this study; cited from earlier work

T3 sequence (P11712 whole entry): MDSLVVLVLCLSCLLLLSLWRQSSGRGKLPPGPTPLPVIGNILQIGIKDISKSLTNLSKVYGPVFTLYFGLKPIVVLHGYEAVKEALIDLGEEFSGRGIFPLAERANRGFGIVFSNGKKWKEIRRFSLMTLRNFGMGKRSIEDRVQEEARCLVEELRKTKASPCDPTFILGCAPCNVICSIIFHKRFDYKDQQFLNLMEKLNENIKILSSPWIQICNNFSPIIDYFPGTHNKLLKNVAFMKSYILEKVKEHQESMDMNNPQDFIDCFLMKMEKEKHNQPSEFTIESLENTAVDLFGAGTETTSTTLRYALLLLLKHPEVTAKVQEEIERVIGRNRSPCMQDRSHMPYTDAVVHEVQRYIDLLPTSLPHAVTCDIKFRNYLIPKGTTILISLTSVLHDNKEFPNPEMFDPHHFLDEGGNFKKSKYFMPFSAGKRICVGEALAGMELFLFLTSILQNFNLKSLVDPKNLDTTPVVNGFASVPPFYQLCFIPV
T1 sequence (P08684 whole entry): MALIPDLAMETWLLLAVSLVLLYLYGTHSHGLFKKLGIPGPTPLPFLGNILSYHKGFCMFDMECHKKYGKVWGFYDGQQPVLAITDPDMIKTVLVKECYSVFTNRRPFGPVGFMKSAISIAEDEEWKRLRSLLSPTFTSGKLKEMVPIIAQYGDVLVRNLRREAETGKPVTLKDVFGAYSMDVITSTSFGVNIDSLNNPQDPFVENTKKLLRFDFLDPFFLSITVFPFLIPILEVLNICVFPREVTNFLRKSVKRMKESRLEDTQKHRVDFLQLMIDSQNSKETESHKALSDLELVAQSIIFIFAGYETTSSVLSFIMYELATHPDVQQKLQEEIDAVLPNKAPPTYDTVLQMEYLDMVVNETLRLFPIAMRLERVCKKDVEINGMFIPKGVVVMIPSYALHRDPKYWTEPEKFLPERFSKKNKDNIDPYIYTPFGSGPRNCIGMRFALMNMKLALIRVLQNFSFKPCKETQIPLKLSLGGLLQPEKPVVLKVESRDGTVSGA
Sequence of CYP2C19 (P33261 whole entry): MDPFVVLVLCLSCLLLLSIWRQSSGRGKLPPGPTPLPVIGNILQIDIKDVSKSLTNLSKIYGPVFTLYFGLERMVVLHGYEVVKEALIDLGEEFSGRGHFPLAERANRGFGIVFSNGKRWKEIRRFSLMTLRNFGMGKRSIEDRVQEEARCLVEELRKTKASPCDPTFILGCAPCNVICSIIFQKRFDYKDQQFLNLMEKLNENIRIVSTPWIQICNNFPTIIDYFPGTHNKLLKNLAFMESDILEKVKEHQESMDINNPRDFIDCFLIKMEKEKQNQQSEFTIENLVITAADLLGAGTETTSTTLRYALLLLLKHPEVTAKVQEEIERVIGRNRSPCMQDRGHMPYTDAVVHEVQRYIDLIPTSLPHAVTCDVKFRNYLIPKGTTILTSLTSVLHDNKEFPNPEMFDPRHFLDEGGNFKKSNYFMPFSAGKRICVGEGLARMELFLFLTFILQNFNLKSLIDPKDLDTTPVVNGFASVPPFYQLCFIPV
T4 sequence (P80457 whole entry): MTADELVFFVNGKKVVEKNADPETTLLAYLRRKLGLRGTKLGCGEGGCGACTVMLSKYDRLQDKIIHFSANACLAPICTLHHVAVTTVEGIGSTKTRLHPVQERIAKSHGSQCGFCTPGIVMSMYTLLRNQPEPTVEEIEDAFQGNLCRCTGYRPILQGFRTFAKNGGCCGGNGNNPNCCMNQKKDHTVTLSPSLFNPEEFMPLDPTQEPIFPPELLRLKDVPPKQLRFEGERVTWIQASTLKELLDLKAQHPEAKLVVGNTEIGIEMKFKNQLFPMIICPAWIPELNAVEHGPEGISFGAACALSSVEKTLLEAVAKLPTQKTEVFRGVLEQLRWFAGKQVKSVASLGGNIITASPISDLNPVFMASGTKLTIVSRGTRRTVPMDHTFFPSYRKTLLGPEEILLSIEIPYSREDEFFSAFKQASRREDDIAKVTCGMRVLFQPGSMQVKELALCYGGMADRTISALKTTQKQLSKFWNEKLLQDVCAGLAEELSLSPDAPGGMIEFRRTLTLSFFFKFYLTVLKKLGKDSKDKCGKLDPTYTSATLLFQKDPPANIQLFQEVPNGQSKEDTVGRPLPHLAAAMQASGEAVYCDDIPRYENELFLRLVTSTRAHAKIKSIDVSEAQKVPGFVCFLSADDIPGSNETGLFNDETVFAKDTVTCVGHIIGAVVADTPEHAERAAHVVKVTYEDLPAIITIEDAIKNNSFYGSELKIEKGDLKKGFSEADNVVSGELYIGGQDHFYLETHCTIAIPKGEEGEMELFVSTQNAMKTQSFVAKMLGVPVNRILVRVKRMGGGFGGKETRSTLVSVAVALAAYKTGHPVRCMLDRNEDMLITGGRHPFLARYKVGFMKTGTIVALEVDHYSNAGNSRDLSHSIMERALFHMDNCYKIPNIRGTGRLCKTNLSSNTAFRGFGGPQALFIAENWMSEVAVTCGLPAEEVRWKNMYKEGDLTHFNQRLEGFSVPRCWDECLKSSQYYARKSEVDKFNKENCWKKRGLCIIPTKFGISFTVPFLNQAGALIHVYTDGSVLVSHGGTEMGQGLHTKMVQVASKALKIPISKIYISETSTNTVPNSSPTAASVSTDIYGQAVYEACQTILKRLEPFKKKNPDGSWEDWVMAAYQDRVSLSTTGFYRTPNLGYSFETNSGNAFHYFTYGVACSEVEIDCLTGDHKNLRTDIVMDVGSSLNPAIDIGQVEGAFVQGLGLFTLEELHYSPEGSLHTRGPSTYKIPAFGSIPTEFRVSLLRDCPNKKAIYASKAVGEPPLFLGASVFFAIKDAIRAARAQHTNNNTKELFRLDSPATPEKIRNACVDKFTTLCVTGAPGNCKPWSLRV

O=c1cc(-c2ccccc2)oc2c(O)c(O)ccc12 [DHF, 7,8-dihydroxyflavone]
IC50 [1]: 14.5 µM
IC50(rel) (IC50 divided by substrate concentration) ([1]; human, 180 min, pH 7.5): 2.9
fraction of total warfarin became unbound ([2]; 10 μM DHF): 12%
fraction of total warfarin became unbound ([2]; 20 μM DHF): 21%
IC50 [3]: 34.5 µM
IC50(rel) (IC50 divided by substrate concentration) ([3]; human, 80 min, pH 7.5): 2.3
α (IC50 of DHF divided by IC50 of positive control) ([3]; human, 80 min, pH 7.5): 1.0
IC50 [4]: 19 µM
IC50(rel) (IC50 divided by substrate concentration) ([4]; human, 120 min, pH 7.5): 3.8
IC50 [5]: 11 µM
Stern-Volmer quenching constant KSV ([6]; λex 295 nm, λem 340 nm): 344000 ± 3000 L/mol
binding constant K of DHF-HSA complex ([6]; nonlinear fitting with Hyperquad2006): 490000 L/mol and 487000 ± 7000 L/mol
effect on fluorescence emission signal of warfarin at 379 nm [7]: strongly decreased
further fraction of total naproxen in the filtrate ([8]; 10 μM DHF): 14%
further fraction of total naproxen in the filtrate ([8]; 20 μM DHF): 22%
plasma concentrations ([9]; per os 15-50 mg/kg DHF): 33 to 192 nM
oral bioavailability [9]: approximately 4.5%

Clc1ccccc1CN1CCc2sccc2C1 [TIC, ticlopidine]
peak plasma concentrations ([10]; chronic treatment, oral 250 mg twice daily, men): 3.4 to 4.1 µM
average peak plasma concentrations ([10]; oral 3 × 100 mg daily, healthy subjects): approximately 3.5 μM
peak plasma concentration ([10]; oral single 250 mg dose): 1.3 to 2.6 µM

CC(=O)CC(c1ccccc1)c1c(O)c2ccccc2oc1=O (stereo not shown) [WAR, warfarin, reference compound]
IC50(rel) (IC50 divided by substrate concentration) ([3]; human, 80 min, pH 7.5): 2.3
binding constant K to HSA ([11]; warfarin-HSA): 340000 L/mol

COc1ccc(-c2oc3cc(OC)c(OC)c(O)c3c(=O)c2OC)cc1O [casticin]
fold weaker inhibitor of CYP2C9 compared to DHF [12]: 1.3 fold

O=c1cc(-c2ccccc2)oc2cc(O)cc(O)c12 [chrysin, 5,7-dihydroxyflavone]
binding constant K to HSA ([11]; chrysin-HSA): 340000 L/mol

Oc1ccc(/C=C/c2cc(O)cc(O)c2)cc1 [resveratrol]
inhibitory effect on CYP3A4 compared to DHF [13]: two-fold stronger inhibitor
